Values of other authors in patent US20170313932A1, “SYNTHETIC ACID COMPOSITIONS ALTERNATIVES TO CONVENTIONAL ACIDS IN THE OIL AND GAS INDUSTRY” (FLUID ENERGY GROUP LTD., priority 2014, published 2017).

Tested on: Life and Health

## Cl [Hydrogen chloride gas, Hydrogen chloride]
  Level Immediately Dangerous to Life and Health (IDHL): above 50 PPM
Gas exposure, death in 2-3 minutes
  Level at which death can occur: 1300-2000 parts per million (PPM)
